Columns and labels:
Experiment in all cases: CYP51 reconstitution assay
Format in all cases: biochemical
[1] = molecular target: T1, CaCYP51 G307S (Candida albicans, UniProt P10613, G307S); details: 0.25 h, 4 μM triazole, % of activity without triazole, read-out: Residual CYP51 activity (%) ± SD
T1 construct: made in house; host or cells: E. coli DH5α (pCWori+)
Procedure: (§1) Azole antifungal agents were added in 2.5 μl dimethyl sulfoxide, followed by 10 min of incubation at 37°C prior to assay initiation with 4 mM β-NADPH-Na4. The samples were then shaken for 15 min at 37°C. Sterol metabolites were recovered by extraction with ethyl acetate, followed by derivatization with 0.1 ml N,O-bis(trimethylsilyl)trifluoroacetamide (BSTFA)–trimethylchlorosilane (TMCS) (99:1) and 0.3 ml anhydrous pyridine (2 h at 80°C), prior to analysis by gas chromatography-mass spectrometry (GC-MS) ([52]). IC50 determinations were performed in duplicate.

[2] = molecular target: T2, CaCYP51 D278N+G464S (Candida albicans, UniProt P10613, D278N/G464S); details: 0.25 h, 4 μM triazole, % of activity without triazole, read-out: Residual CYP51 activity (%) ± SD
T2 construct: made in house; host or cells: E. coli DH5α (pCWori+)
Procedure: as §1

[3] = molecular target: T3, CaCYP51 G448E (Candida albicans, UniProt P10613, G448E); details: 0.25 h, 4 μM triazole, % of activity without triazole, read-out: Residual CYP51 activity (%) ± SD
T3 construct: made in house; host or cells: E. coli DH5α (pCWori+)
Procedure: as §1

[4] = molecular target: T4, CaCYP51 P230L (Candida albicans, UniProt P10613, P230L); details: 0.25 h, 4 μM triazole, % of activity without triazole, read-out: Residual CYP51 activity (%) ± SD
T4 construct: made in house; host or cells: E. coli DH5α (pCWori+)
T4 sequence (P10613 whole entry, looked up, stated change not applied): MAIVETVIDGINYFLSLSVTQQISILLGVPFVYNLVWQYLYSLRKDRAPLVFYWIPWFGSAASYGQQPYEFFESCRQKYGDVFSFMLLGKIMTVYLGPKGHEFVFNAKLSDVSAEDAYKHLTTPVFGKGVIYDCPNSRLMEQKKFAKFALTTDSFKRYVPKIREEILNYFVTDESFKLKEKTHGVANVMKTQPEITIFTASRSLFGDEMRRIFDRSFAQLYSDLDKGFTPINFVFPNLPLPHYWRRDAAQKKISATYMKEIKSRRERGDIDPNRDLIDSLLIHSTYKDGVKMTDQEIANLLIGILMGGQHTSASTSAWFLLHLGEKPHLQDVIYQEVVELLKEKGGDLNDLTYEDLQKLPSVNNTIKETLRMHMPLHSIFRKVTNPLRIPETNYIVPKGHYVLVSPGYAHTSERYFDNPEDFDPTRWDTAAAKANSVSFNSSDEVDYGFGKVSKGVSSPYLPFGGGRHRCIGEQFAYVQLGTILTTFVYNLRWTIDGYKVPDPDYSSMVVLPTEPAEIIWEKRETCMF
Procedure: as §1

[5] = molecular target: T5, CaCYP51 R467K (Candida albicans, UniProt P10613, R467K); details: 0.25 h, 4 μM triazole, % of activity without triazole, read-out: Residual CYP51 activity (%) ± SD
T5 construct: made in house; host or cells: E. coli DH5α (pCWori+)
Procedure: as §1

[6] = molecular target: T6, CaCYP51 V488I (Candida albicans, UniProt P10613, V488I); details: 0.25 h, 4 μM triazole, % of activity without triazole, read-out: Residual CYP51 activity (%) ± SD
T6 construct: made in house; host or cells: E. coli DH5α (pCWori+)
T6 sequence (P10613 whole entry, looked up, stated change not applied): as above
Procedure: as §1

[7] = molecular target: T7, CaCYP51 G450E (Candida albicans, UniProt P10613, G450E); details: 0.25 h, 4 μM triazole, % of activity without triazole, read-out: Residual CYP51 activity (%) ± SD
T7 construct: made in house; host or cells: E. coli DH5α (pCWori+)
Procedure: as §1

[8] = molecular target: T8, CaCYP51 Y132H (Candida albicans, UniProt P10613, Y132H); details: 0.25 h, 4 μM triazole, % of activity without triazole, read-out: Residual CYP51 activity (%) ± SD
T8 construct: made in house; host or cells: E. coli DH5α (pCWori+)
T8 sequence (P10613 whole entry, looked up, stated change not applied): as above
Procedure: as §1

[9] = molecular target: T9, CaCYP51 Wild type (Candida albicans, UniProt P10613); details: 0.25 h; Wild type; 4 μM triazole; % of activity without triazole; read-out: Residual CYP51 activity (%) ± SD
T9 construct: made in house; host or cells: E. coli DH5α (pCWori+)
Procedure: as §1

[10] = molecular target: T10, CaCYP51 V456I (Candida albicans, UniProt P10613, V456I); details: 0.25 h, 4 μM triazole, % of activity without triazole, read-out: Residual CYP51 activity (%) ± SD
T10 construct: made in house; host or cells: E. coli DH5α (pCWori+)
Procedure: as §1

[11] = molecular target: T11, CaCYP51 I471T (Candida albicans, UniProt P10613, I471T); details: 0.25 h, 4 μM triazole, % of activity without triazole, read-out: Residual CYP51 activity (%) ± SD
T11 construct: made in house; host or cells: E. coli DH5α (pCWori+)
Procedure: as §1

[12] = molecular target: T12, CaCYP51 Q474K (Candida albicans, UniProt P10613, Q474K); details: 0.25 h, 4 μM triazole, % of activity without triazole, read-out: Residual CYP51 activity (%) ± SD
T12 construct: made in house; host or cells: E. coli DH5α (pCWori+)
T12 sequence (P10613 whole entry, looked up, stated change not applied): as above
Procedure: as §1

[13] = molecular target: T13, CaCYP51 S279F (Candida albicans, UniProt P10613, S279F); details: 0.25 h, 4 μM triazole, % of activity without triazole, read-out: Residual CYP51 activity (%) ± SD
T13 construct: made in house; host or cells: E. coli DH5α (pCWori+)
Procedure: as §1

[14] = molecular target: T14, CaCYP51 F126V (Candida albicans, UniProt P10613, F126V); details: 0.25 h, 4 μM triazole, % of activity without triazole, read-out: Residual CYP51 activity (%) ± SD
T14 construct: made in house; host or cells: E. coli DH5α (pCWori+)
Procedure: as §1

[15] = molecular target: T15, CaCYP51 F449Y (Candida albicans, UniProt P10613, F449Y); details: 0.25 h, 4 μM triazole, % of activity without triazole, read-out: Residual CYP51 activity (%) ± SD
T15 construct: made in house; host or cells: E. coli DH5α (pCWori+)
Procedure: as §1

[16] = molecular target: T16, CaCYP51 Y257H (Candida albicans, UniProt P10613, Y257H); details: 0.25 h, 4 μM triazole, % of activity without triazole, read-out: Residual CYP51 activity (%) ± SD
T16 construct: made in house; host or cells: E. coli DH5α (pCWori+)
T16 sequence (P10613 whole entry, looked up, stated change not applied): as above
Procedure: as §1

[17] = molecular target: T17, CaCYP51 S405F (Candida albicans, UniProt P10613, S405F); details: 0.25 h, 4 μM triazole, % of activity without triazole, read-out: Residual CYP51 activity (%) ± SD
T17 construct: made in house; host or cells: E. coli DH5α (pCWori+)
Procedure: as §1

[18] = molecular target: T18, CaCYP51 K143R (Candida albicans, UniProt P10613, K143R); details: 0.25 h, 4 μM triazole, % of activity without triazole, read-out: Residual CYP51 activity (%) ± SD
T18 construct: made in house; host or cells: E. coli DH5α (pCWori+)
T18 sequence (P10613 whole entry, looked up, stated change not applied): as above
Procedure: as §1

[19] = molecular target: T19, CaCYP51 D278N (Candida albicans, UniProt P10613, D278N); details: 0.25 h, 4 μM triazole, % of activity without triazole, read-out: Residual CYP51 activity (%) ± SD
T19 construct: made in house; host or cells: E. coli DH5α (pCWori+)
Procedure: as §1

[20] = molecular target: T20, CaCYP51 G307S+G450E (Candida albicans, UniProt P10613, G307S/G450E); details: 0.25 h, 4 μM triazole, % of activity without triazole, read-out: Residual CYP51 activity (%) ± SD
T20 construct: made in house; host or cells: E. coli DH5α (pCWori+)
Procedure: as §1

[21] = molecular target: T21, CaCYP51 Y447H (Candida albicans, UniProt P10613, Y447H); details: 0.25 h, 4 μM triazole, % of activity without triazole, read-out: Residual CYP51 activity (%) ± SD
T21 construct: made in house; host or cells: E. coli DH5α (pCWori+)
Procedure: as §1

[22] = molecular target: T22, CaCYP51 Y132F (Candida albicans, UniProt P10613, Y132F); details: 0.25 h, 4 μM triazole, % of activity without triazole, read-out: Residual CYP51 activity (%) ± SD
T22 construct: made in house; host or cells: E. coli DH5α (pCWori+)
Procedure: as §1

[23] = molecular target: T23, CaCYP51 F145L (Candida albicans, UniProt P10613, F145L); details: 0.25 h, 4 μM triazole, % of activity without triazole, read-out: Residual CYP51 activity (%) ± SD
T23 construct: made in house; host or cells: E. coli DH5α (pCWori+)
T23 sequence (P10613 whole entry, looked up, stated change not applied): as above
Procedure: as §1

[24] = molecular target: T24, CaCYP51 G464S (Candida albicans, UniProt P10613, G464S); details: 0.25 h, 4 μM triazole, % of activity without triazole, read-out: Residual CYP51 activity (%) ± SD
T24 construct: made in house; host or cells: E. coli DH5α (pCWori+)
T24 sequence (P10613 whole entry, looked up, stated change not applied): as above
Procedure: as §1

[25] = molecular target: T25, CaCYP51 Y118A (Candida albicans, UniProt P10613, Y118A); details: 0.25 h, 4 μM triazole, % of activity without triazole, read-out: Residual CYP51 activity (%) ± SD
T25 construct: made in house; host or cells: E. coli DH5α (pCWori+)
Procedure: as §1

[26] = molecular target: T26, CaCYP51 Y132H+K143R (Candida albicans, UniProt P10613, K143R/Y132H); details: 0.25 h, 4 μM triazole, % of activity without triazole, read-out: Residual CYP51 activity (%) ± SD
T26 construct: made in house; host or cells: E. coli DH5α (pCWori+)
Procedure: as §1

[27] = molecular target: T27, CaCYP51 Y132F+K143R (Candida albicans, UniProt P10613, K143R/Y132F); details: 0.25 h, read-out: Residual CYP51 activity (%) ± SD
T27 construct: made in house; host or cells: E. coli DH5α (pCWori+)
T27 sequence (P10613 whole entry, looked up, stated change not applied): as above
Procedure: as §1

C[C@@H](c1ncncc1F)[C@](O)(Cn1cncn1)c1ccc(F)cc1F [Voriconazole, voriconazole]
remaining activity at 4 µM [1]: 0.41 ± 0.04%
remaining activity at 4 µM [2]: 4.79 ± 0.11%
remaining activity at 4 µM [3]: 1.89 ± 0.61%
remaining activity at 4 µM [4]: 0.13 ± 0.12%
remaining activity at 4 µM [5]: 0.52 ± 0.18%
remaining activity at 4 µM [6]: 0.13 ± 0.08%
remaining activity at 4 µM [7]: 3.5 ± 0.17%
remaining activity at 4 µM [8]: 0.33 ± 0.19%
remaining activity at 4 µM [9]: 0.11 ± 0.01%
remaining activity at 4 µM [10]: 0.79 ± 0.07%
remaining activity at 4 µM [11]: 0.92 ± 0.05%
remaining activity at 4 µM [12]: 0.34 ± 0.04%
remaining activity at 4 µM [13]: 6.15 ± 0.66%
remaining activity at 4 µM [14]: 0.19 ± 0.06%
remaining activity at 4 µM [15]: 0.56 ± 0.12%
remaining activity at 4 µM [16]: 0.63 ± 0.27%
remaining activity at 4 µM [17]: 1.94 ± 0.12%
remaining activity at 4 µM [18]: 3.12 ± 0.27%
remaining activity at 4 µM [19]: 1.34 ± 0.05%
remaining activity at 4 µM [20]: 0.41 ± 0.1%
remaining activity at 4 µM [21]: 2.07 ± 1.04%
remaining activity at 4 µM [22]: 1.09 ± 0.05%
remaining activity at 4 µM [23]: 0.37 ± 0.11%
remaining activity at 4 µM [24]: 0.1 ± 0.01%
remaining activity at 4 µM [25]: 0.28 ± 0.04%
remaining activity at 4 µM [26]: 39.6 ± 8.63%
remaining activity at 4 µM [27]: 8.86 ± 1.09%
